SMILES strings stand for the structures. Entries after “also recorded” stand apart in the source; their conditions may differ.

One series is described as follows: Chrom logD. It is filed as physicochemical. As to conditions: pH 7.4.
A further series addresses T1, ATAD2B bromodomain (Homo sapiens, UniProt Q9ULI0).
T1 sequence (Q9ULI0 951-1066 limits assumed): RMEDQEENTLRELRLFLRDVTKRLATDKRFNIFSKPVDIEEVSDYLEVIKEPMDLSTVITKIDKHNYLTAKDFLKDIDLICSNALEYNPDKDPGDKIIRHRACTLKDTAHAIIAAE
Nature of the series: ATAD2B TR-FRET. In kind it is binding.

In a further series the target is tandem BRD4 bromodomains (Homo sapiens, UniProt O60885). Nature of the series: BRD4 tandem isothermal titration calorimetry. In kind it is binding.
The next series addresses BRD2 BD1 (Homo sapiens, UniProt P25440). Kind of series: BRD2 BD1 TR-FRET. It is filed as binding.
A short description of another series: CLND solubility. It is filed as physicochemical.
Series [1] concerns internal GSK panel of 40 targets considered as potential liabilities. Nature of the series: Internal GSK panel of 40 liability targets. As to conditions: data not shown.
Series [2] concerns the target T2, ATAD2 bromodomain / histone H3.3 (Homo sapiens, UniProt Q6PL18).
T2 sequence (Q6PL18 980-1092 limits assumed): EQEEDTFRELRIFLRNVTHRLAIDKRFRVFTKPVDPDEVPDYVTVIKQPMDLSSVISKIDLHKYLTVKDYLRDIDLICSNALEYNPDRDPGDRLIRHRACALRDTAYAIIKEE
Kind of series: Cellular NanoBRET displacement, ATAD2 bromodomain from histone H3.3. In kind it is cell-based. As to conditions: NanoBRET (Promega).

Series [3] deals with T3, full-length ATAD2 / histone H3.3 (Homo sapiens, UniProt Q6PL18).
T3 sequence (Q6PL18 1-1390): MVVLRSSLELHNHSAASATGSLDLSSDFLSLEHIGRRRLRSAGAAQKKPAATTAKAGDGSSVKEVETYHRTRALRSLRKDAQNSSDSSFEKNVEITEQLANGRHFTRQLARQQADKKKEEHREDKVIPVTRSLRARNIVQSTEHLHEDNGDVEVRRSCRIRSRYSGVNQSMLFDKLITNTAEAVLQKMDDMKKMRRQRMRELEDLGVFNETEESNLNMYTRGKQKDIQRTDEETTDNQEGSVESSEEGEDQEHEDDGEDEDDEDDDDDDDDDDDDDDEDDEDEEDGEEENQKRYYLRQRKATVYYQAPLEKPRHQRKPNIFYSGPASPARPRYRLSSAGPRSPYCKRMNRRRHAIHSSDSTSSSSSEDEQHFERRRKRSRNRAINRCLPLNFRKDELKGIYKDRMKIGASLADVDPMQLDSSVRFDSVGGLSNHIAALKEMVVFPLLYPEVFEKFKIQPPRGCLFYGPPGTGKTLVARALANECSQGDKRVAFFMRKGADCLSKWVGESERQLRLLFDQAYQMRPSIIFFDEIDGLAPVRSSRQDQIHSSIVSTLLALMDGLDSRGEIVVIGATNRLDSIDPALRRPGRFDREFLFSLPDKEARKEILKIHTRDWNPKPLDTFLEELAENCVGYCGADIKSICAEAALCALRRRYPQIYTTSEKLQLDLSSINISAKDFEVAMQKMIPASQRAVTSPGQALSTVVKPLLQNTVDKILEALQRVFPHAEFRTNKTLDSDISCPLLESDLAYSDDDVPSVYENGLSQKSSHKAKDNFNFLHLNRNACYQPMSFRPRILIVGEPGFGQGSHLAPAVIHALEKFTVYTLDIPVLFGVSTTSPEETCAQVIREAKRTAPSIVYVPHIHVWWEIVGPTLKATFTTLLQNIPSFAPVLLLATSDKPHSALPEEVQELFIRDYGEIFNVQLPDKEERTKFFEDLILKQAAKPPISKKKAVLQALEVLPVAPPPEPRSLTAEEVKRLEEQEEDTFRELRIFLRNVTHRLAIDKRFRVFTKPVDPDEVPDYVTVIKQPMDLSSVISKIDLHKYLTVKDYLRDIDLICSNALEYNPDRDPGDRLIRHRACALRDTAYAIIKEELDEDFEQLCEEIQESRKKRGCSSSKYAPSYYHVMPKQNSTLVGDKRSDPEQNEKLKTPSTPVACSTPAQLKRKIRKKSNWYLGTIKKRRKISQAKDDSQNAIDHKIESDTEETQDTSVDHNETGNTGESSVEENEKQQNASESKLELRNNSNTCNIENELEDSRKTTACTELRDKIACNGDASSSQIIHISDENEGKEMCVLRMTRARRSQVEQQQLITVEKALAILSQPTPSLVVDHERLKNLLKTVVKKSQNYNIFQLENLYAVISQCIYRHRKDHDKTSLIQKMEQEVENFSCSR
Kind of series: Cellular NanoBRET displacement, full-length ATAD2 from histone H3.3. It is filed as cell-based.

The test system of the next series is colony formation. Kind of series: Colony formation. It is filed as cell-based.
The test system of series [4] is genes involved in cell cycle and division. Kind of series: Expression of genes involved in cell cycle and division. In kind it is cell-based.

Chain of BRD2 BD1 (P25440 74-180 limits assumed): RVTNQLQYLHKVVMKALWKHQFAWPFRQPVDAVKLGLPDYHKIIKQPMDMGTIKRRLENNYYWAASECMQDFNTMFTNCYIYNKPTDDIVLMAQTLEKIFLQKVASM

On to `CO[C@H]1CNC[C@@H](OCC2CCC(F)(F)CC2)[C@@H]1Nc1ncc(-c2cncc(C)c2)c2cc(C)c(=O)[nH]c12` [Compound 16], for which the chromatographic logD in “Chrom logD” is 3.2. The values for the IC50 against ATAD2B bromodomain and against BRD2 BD1 were 20 nM and at least 39.8 µM, respectively. On tandem BRD4 bromodomains, the “Interaction with tandem BRD4 bromodomains by ITC” value was “no interaction detected”. This compound returned a solubility in “CLND solubility” above 439 µM. Further, the “Off-target activity against internal GSK panel of 40 targets” value in [1] is “inactive”. The “Displacement of labelled ATAD2 bromodomain from histone H3.3” value in [2] was “dose-dependent displacement; also recorded: displaces the ATAD2 bromodomain construct”. In series [3], the “Displacement of full-length ATAD2 from histone H3.3” value was “ineffective; also recorded: does not displace full-length ATAD2”. The “Effects on colony formation” value in the series with colony formation was “only seen at high compound concentrations”. Further, in [4], the “Inhibition of genes involved in cell cycle and division” value was “only seen at high compound concentrations”.

These data come from PMC7314595 (Angewandte Chemie (International ed. in English), 2016).
